Laboratory results: the SangsterLogP compilation
Residues, ends and D or L forms follow the SMILES beside them. *: point of attachment. Boc = CC(C)(C)OC(=O)*

Conditions: not given

| Structure (SMILES) | logP |
| --- | --- |
| COc1ccc([N+](=O)[O-])cc1N | 1.47 |
| c1ccc(-c2cnc(-c3ccccc3)o2)cc1 | 4.67 |
| COC(=O)Nc1c(C)cccc1C | 1.69 |
| CCCOCCN(C(=O)CCl)c1c(CC)cccc1CC | 4.08 |
| CCCCOC(NC(=O)c1ccccc1O)C(Cl)(Cl)Cl (stereo unspecified) | 4.45 |
| CC(=O)OC(C)c1ccccc1 (stereo unspecified) | 2.3 |
| O=Nc1ccc(NO)cc1 | 1.49 |
| CS(=O)(=O)N(c1ccccc1[N+](=O)[O-])S(C)(=O)=O | 0.81 |
| CCOC(=O)COC(=O)c1cc(Oc2ccc(C(F)(F)F)cc2Cl)ccc1[N+](=O)[O-] | 3.65 |
| O=C1C=C(N2CCCC2)C(=O)c2ccccc21 | 2.89 |
| O=C(N/N=C/c1ccco1)Nc1ccccc1 | 2.52 |
| CCc1ccncc1 | 1.65 |
| FC(F)(F)c1cccc(C(F)(F)F)c1 | 3.83 |
| COCC(O)Cn1cc([N+](=O)[O-])nn1 (stereo unspecified) | -0.36 |
| C=CCOC1=NS(=O)(=O)c2ccccc21 | 1.4 |
| CN(C)/C=C/[N+](=O)[O-] | -0.8 |
| FC(F)(F)c1ccccc1Cl | 3.53 |
| CC(=O)N(C)Nc1ccccc1 | 1.31 |
| N#CNc1ccccc1 | 1.87 |
| CCOC(=O)C(=O)Nc1ccccc1 | 1.48 |
| Cn1c(N)nc2ccc(Cl)cc21 | 2.01 |
| Cc1ccc(C(=O)COc2c(C(=O)c3ccc(Cl)c(C)c3Cl)c(C)nn2C)cc1 | 4.69 |
| Nc1ccc(S)cc1 | 1.31 |
| CCC12CCN(C)C(Cc3ccc(O)cc31)C2C (stereo unspecified) | -1.14 |
| O=Cc1ccccn1 | 0.44 |

| Structure (SMILES) | logP |
| --- | --- |
| COC(=O)CC(C)C | 1.82 |
| COC(=O)C(Cl)(Cl)Cl | 2.03 |
| O=C1CC(c2ccc(C(F)(F)F)cc2)Cc2c1c(=O)c1cc(Cl)ccc1n2O (stereo unspecified) | 3.46 |
| O=C1CC(OC(=O)c2ccccc2)N1 (stereo unspecified) | 1.37 |
| N#CCc1ccc([N+](=O)[O-])cc1 | 1.37 |
| Cn1cccn1 | 0.23 |
| CCC1OC(=O)C(C)C(OC2CC(C)(OC)C(O)C(C)O2)C(C)C(OC2OCC(O)C(N=[N+]=[N-])C2O)C(C)(O)CC(C)C(=O)CC(O)C1(C)O (stereo unspecified) | 1.76 |
| CN(C)N=Nc1ccc(CCCC(=O)O)cc1 | 2.62 |
| CC(C)(C)NC(=O)[C@H]1CC[C@H]2[C@@H]3CC[C@H]4NC(=O)C=C[C@]4(C)[C@H]3CC[C@]12C | 3.03 |
| CON=C(Cc1cccnc1)c1ccc(Cl)cc1Cl | 2.51 |
| Nc1cc(Cl)c(Cl)cc1N | 2 |
| O=[N+]([O-])c1ccc(Nc2ccccc2)cc1 | 3.74 |
| CCC(C)c1cc([N+](=O)[O-])cc(C(C)CC)c1O (stereo unspecified) | 4.8 |
| NC(=O)Cc1cccs1 | 0.33 |
| CC(C)(C)C(O)(CCc1ccc(Cl)cc1)Cn1cncn1 (stereo unspecified) | 3.7 |
| CCOC(=O)CC(=O)c1ccccc1 | 1.87 |
| Nc1nc(=O)cc[nH]1 | -0.99 |
| CN(C)C(=S)NN | -0.3 |
| O=[N+]([O-])c1ccc(O)c(O)c1 | 1.66 |
| O=C(NCCO)C(F)(F)Cn1cnc([N+](=O)[O-])n1 | -0.77 |
| CCCCC(NC(Cc1ccccc1)C(=O)N1CCC(OCOC)CC1)C(=O)NC(CC1CCCCC1)C(O)CC(C(=O)NCCNC(N)=NC#N)C(C)C (stereo unspecified) | 4.14 |
| c1ccc2c(c1)Oc1ccccc1S2 | 4.54 |
| CC(=O)Nc1ncnc2c1ncn2C | -0.41 |
| O=C(O)Cc1ccc(N2Cc3ccccc3C2=O)cc1 | 2.9 |
| c1ncc2c(n1)-c1cn[nH]c1-2 | 0.14 |

| Structure (SMILES) | logP |
| --- | --- |
| CCS(=O)(=O)c1c([N+](=O)[O-])ncn1C | -0.37 |
| CN(C)C1=CC(=O)C(N(C)C)=CC1=O | 1.03 |
| Cc1cccc(C)c1N | 1.84 |
| CCOc1cccc(Cl)n1 | 2.55 |
| CCCCCCCCCCCCCCc1cccc(N2C(N)=NC(N)=NC2(C)C)c1 | 3.64 |
| OCCCCl | 0.5 |
| O=C(N/N=C/c1ccc[nH]1)Nc1ccccc1 | 2.96 |
| CCCN(CCC)c1c([N+](=O)[O-])cc(S(N)(=O)=O)cc1[N+](=O)[O-] | 3.73 |
| CC(O)CNC(=O)C(F)(F)Cn1cnc([N+](=O)[O-])n1 (stereo unspecified) | -0.48 |
| Cc1ccc(O)c(-n2nc3ccccc3n2)c1 | 4.31 |
| CCC(C)(C)Cl | 2.52 |
| NC(=O)CCOc1ccccc1 | 0.8 |
| CC(=O)OC(C)(C)C | 1.76 |
| Cc1cscn1 | 0.97 |
| CC(O)Cc1ccccc1 (stereo unspecified) | 1.97 |
| C#CCN(CC#C)CC#C | 1.27 |
| Cc1cccc(CC(=O)O)c1Nc1c(Cl)cccc1Cl | 4.93 |
| Cn1cccc1C=NNC(=O)Nc1ccccc1 | 2.71 |
| Clc1nc(Cl)nc(Nc2ccccc2Cl)n1 | 3 |
| NC1CC1 | 0.07 |
| N#CCC#N | -0.5 |
| FC(F)(F)CCc1ccccc1 | 3.31 |
| c1ccc(COCc2ccccc2)cc1 | 3.31 |
| N#CC1CC1 | 0.29 |
| Cc1nn(C)c(OCC(=O)c2ccccc2)c1C(=O)c1ccc(Cl)cc1Cl | 3.69 |

Same assay, conditions: pH 1.0

| Structure (SMILES) | logD |
| --- | --- |
| O=C(O)c1c2ccccc2cc2ccccc12 | 3.85 |
| O=C(O)CCCOc1ccc(Cl)cc1Cl | 3.53 |
| CC(C)(C)OC(=O)N[C@@H](Cc1ccccc1)C(=O)N[C@@H](Cc1ccc(O)cc1)C(=O)O (Boc-Phe-Tyr-OH) | 2.79 |

Same assay, conditions: pH 4.0

| Structure (SMILES) | logD |
| --- | --- |
| O=[N+]([O-])c1cc(C(F)(F)F)cc([N+](=O)[O-])c1NN=C(C(F)(F)F)C(F)(F)F | 3.6 |
| N#Cc1ccc(NN=C(C(F)(F)F)C(F)(F)F)c([N+](=O)[O-])c1 | 3.4 |
| O=[N+]([O-])c1ccc(NN=C(C(F)(F)F)C(F)(F)F)c([N+](=O)[O-])c1 | 3.8 |
| FC(F)(F)C(=NNc1ccc(Cl)c(Cl)c1)C(F)(F)F | 5.1 |

Same assay, conditions: pH 4.2

| Structure (SMILES) | logD |
| --- | --- |
| NC(=O)c1nc[nH]c1N=NN(CCO)CCO | -1.04 |

Same assay, conditions: pH 5.0

| Structure (SMILES) | logD |
| --- | --- |
| Sc1nc(-c2ccccc2)ns1 | 2.13 |

Same assay, conditions: pH 7.0

| Structure (SMILES) | logD |
| --- | --- |
| COc1ccc2c(c1OC)-c1ccc(OC)c(=O)cc1[C@@H](NC(C)=O)CC2 | 1.02 |
| Nc1nc(Cl)c2ncn([C@@H]3O[C@H](CO)C[C@@H]3F)c2n1 | 0.28 |
| Nc1nc(=O)n([C@H]2CC[C@@H](CO)O2)cc1Br | -0.48 |

Same assay, conditions: pH 7.4

| Structure (SMILES) | logD |
| --- | --- |
| O=[N+]([O-])c1ncn(CC(F)(F)CO)n1 | -0.21 |
| O=C(/C=C/c1ccc([N+](=O)[O-])o1)N/N=C/c1ccc([N+](=O)[O-])o1 | 2.22 |
| ICCI | 2.71 |
| CNc1nc2c3cccnc3ccc2n1C | 1.82 |
| N#Cc1cccc2cccnc12 | 1.39 |
| c1ccc(C23CCCN2CCO3)cc1 (stereo unspecified) | 1.04 |
| Cn1cc2ccc([N+](=O)[O-])cc2n1 | 1.76 |
| c1csc(C23CCCN2CCO3)c1 (stereo unspecified) | 1.05 |
| Cc1[nH]ccc2c1[nH]c1cc(=O)ccc12 | 2.18 |
| O=[N+]([O-])c1cn(Cc2ccccc2)cn1 | 1.36 |
| Cc1ccc(C=Cc2ncc([N+](=O)[O-])n2CO)cc1 | 2.25 |
| CC(=O)Nc1cccc2cccnc12 | 1.91 |

Same assay, conditions: pH 11.0

| Structure (SMILES) | logD |
| --- | --- |
| OCCCOc1cccc(CN2CCCCC2)c1 | 2.78 |

Same assay, conditions: pH 11.3

| Structure (SMILES) | logD |
| --- | --- |
| CC(=O)NCCCOc1cccc(CN2CCCCC2)c1 | 2.15 |

Same assay, conditions: pH 13.0

| Structure (SMILES) | logD |
| --- | --- |
| CN1CCCNCC1 | -0.4 |
| CN(C)CCNCCN | -0.92 |
| Nc1ncc(Cc2ccccc2Cl)c(N)n1 | 2.24 |
| NCCCN | -1.43 |
| NCCCN1CCN(CCCN)CC1 | -1.43 |
| CC(=O)c1ccc(N2CCCCC2)cc1 | 3.13 |
| NCCN1CCCC1 | 0.08 |
| CN(C1CCCCC1)C1CCCCC1 | 3.71 |
| N=C(N)c1cccc([N+](=O)[O-])c1 | 0.72 |
| CCCNC | 0.84 |
